Reference: article PMC10763615, “Identification and engineering of potent cyclic peptides with selective or promiscuous binding through biochemical profiling and bioinformatic data analysis” (RSC Chemical Biology, 2023)
Like-named read-outs stand apart in the source and are kept apart here.

How the values were obtained:
FGF-R1C ECD [1] = target: T1, FGF-R1C ECD (Homo sapiens, UniProt P11362); test: biochemical
T1 sequence (P11362 22-376 limits assumed): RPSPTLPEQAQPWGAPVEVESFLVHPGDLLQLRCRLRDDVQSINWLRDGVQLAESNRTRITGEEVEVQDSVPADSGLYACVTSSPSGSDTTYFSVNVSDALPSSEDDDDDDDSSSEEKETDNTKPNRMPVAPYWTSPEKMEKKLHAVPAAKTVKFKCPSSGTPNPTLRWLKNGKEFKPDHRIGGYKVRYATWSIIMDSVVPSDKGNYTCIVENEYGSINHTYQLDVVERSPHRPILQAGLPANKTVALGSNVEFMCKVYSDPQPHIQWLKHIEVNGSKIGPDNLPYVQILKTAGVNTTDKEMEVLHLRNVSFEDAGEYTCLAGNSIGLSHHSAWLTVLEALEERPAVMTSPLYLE
Method in brief: (§1)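 Biolayer interferometry with biotinylated FGF-R ECD on streptavidin biosensors in PBS pH 7.4, 0.05% Tween-20, 0.01% BSA. Multi-concentration: purified peptide dilution series fitted to a multi-point KD model.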

FGF-R3C ECD [2] = target: T2, FGF-R3C ECD (Homo sapiens, UniProt P22607); test: biochemical
T2 sequence (P22607 23-375 limits assumed): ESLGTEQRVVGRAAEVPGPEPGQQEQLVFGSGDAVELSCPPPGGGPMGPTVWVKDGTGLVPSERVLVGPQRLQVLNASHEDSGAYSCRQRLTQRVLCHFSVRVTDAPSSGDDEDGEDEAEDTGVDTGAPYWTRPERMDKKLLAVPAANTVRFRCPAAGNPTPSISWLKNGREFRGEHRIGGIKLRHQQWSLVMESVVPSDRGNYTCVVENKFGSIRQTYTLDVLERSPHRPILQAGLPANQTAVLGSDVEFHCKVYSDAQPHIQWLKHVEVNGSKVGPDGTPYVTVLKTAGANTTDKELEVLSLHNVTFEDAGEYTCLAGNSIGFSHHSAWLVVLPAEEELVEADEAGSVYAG
Method in brief: as §1

FGF-R4 ECD [3] = target: T3, FGF-R4 ECD (Homo sapiens, UniProt P22455); test: multi-concentration BLI of purified peptides; type: binding; details: purified NNK library peptides
T3 construct: DNA constructs for the extracellular domain (ECD) of human FGF-; HPC4 (C); made in house; host or cells: HEK 293-6E
T3 sequence (P22455 22-369 limits assumed): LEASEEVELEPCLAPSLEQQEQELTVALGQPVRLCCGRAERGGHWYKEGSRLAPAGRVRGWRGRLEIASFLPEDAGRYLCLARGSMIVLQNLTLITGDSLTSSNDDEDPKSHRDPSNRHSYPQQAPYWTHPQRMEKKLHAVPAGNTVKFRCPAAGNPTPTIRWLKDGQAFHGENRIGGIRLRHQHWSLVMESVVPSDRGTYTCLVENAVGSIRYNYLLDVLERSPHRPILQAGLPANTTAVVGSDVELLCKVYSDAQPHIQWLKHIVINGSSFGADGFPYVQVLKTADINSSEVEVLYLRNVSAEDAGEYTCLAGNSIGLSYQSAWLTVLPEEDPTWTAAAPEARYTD
Method in brief: as §1

FGF-R4 ECD [4] = target: T3, FGF-R4 ECD; test: single concentration BLI of crude peptides; type: binding; details: crude NNK peptides, single concentration BLI (Table S3); read-out: KD (4)
Method in brief: (§2)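 BLI, streptavidin sensors loaded with biotinylated receptor ECD. Single-point: ~1 μM crude peptide, PBS pH7.4/0.05% Tween-20/0.01% BSA; association then dissociation in buffer. KD corrected for UPLC-CAD-determined concentration.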

[5] = target: T4, FGFR1c/KLB (Fc-fused human FGF-R1alpha(IIIc) with beta-klotho) (Homo sapiens, UniProt P11362); test: AlphaScreen FGF21 competitive binding assay
T4 sequence (P11362 22-376 limits assumed): T1 sequence (P11362 22-376 limits assumed)

[6] = target: T5, FGFR3c/BKL (Fc-fused human FGF-R3alpha(IIIc) with beta-klotho) (Homo sapiens, UniProt P22607); test: AlphaScreen FGF21 competitive binding assay
T5 sequence (P22607 23-375 limits assumed): T2 sequence (P22607 23-375 limits assumed)

[7] = target: T6, FGFR4/KLB (Fc-fused human FGF-R4 with beta-klotho) (Homo sapiens, UniProt P22455); test: AlphaScreen FGF21 competitive binding assay
T6 sequence (P22455 22-369 limits assumed): T3 sequence (P22455 22-369 limits assumed)
Procedure: Alphascreen binding assay
The competitive binding assay was carried out according to the methods detailed in Hansen. et al using
AlphaScreen.3 All reagents and samples were prepared in assay buffer: 40mM Hepes, 140mM NaCl, 1mM
CaCl2, 0,05% Tween20, pH=7.5, 0.1% BSA. In brief, recombinant human beta-klotho (R&D Systems) was
preincubated for 60 min with the ectodomain, either Fc-fused human FGF-R1alpha(IIIc), FGF-R3alpha(IIIc)
or FGF-R4 (R&D Systems), and the mixture was added to the test peptides in OptiPlate™ (PerkinElmer).
Biotinylated FGF21 and heparin were further added to each well. AlphaScreen bead mix (1:1 mix of Protein
A acceptor beads/ streptavidin-coated donor beads, PerkinElmer) were added to each well incubated
overnight at RT in the dark, and measured on a plate reader (Envision). Assays were carried out in triplicates
with concentrations ranging from 3, 10, 30, 100, 300 ,1000 and 3000 nM of peptide. No peptide control
(media only) was used as a negative control, and unlabeled FGF21 and FGF1 as positive control.
competing with biotinylated natural FGF21 ligand.

FGF-R1C ECD [8] = target: T1, FGF-R1C ECD; test: biochemical; type: binding; set-up: DNA constructs for the extracellular domain (ECD) of human FGF-; HPC4 (C); made in house; host or cells: HEK 293-6E
Method in brief: as §2

FGF-R3C ECD [9] = target: T2, FGF-R3C ECD; test: biochemical; type: binding; set-up: DNA constructs for the extracellular domain (ECD) of human FGF-; HPC4 (C); made in house; host or cells: HEK 293-6E
Method in brief: as §2

| Structure (SMILES) | Kd (FGF-R1C ECD [1]) [µM] | Kd (FGF-R3C ECD [2]) [µM] | Kd (FGF-R4 ECD [3]) [µM] | Kd (FGF-R4 ECD [4]) [µM] | IC50 [5] [µM] | IC50 [6] [µM] | IC50 [7] [µM] | Kd (FGF-R1C ECD [8]) [µM] | Kd (FGF-R3C ECD [9]) [µM] |
| --- | --- | --- | --- | --- | --- | --- | --- | --- | --- |
| CSCC[C@H](NC(C)=O)C(=O)N[C@H]1CSSC[C@@H](C(=O)NCC(=O)N[C@@H](CO)C(=O)NCC(=O)N[C@@H](CO)C(=O)N[C@@H](CC(=O)O)C(=O)N[C@@H](Cc2ccc(O)cc2)C(=O)N[C@@H](CCCCN)C(=O)N[C@@H](CC(=O)O)C(=O)N[C@@H](CC(=O)O)C(=O)N[C@@H](CC(=O)O)C(=O)N[C@@H](CC(=O)O)C(=O)N[C@@H](CCCCN)C(N)=O)NC(=O)[C@H](CC(C)C)NC(=O)[C@H](Cc2c[nH]c3ccccc23)NC(=O)[C@H](C)NC(=O)[C@H](Cc2ccccc2)NC(=O)[C@H](Cc2ccccc2)NC(=O)[C@H](Cc2c[nH]c3ccccc23)NC(=O)[C@@H]2CCCN2C(=O)[C@H](Cc2c[nH]cn2)NC(=O)[C@H](CCCCN)NC(=O)[C@H](Cc2ccccc2)NC1=O [4.5] | > 1 | > 1 | 0.233 | 0.035 | > 1 | > 1 | 0.284 | > 10 | > 10 |
| CC[C@H](C)[C@@H]1NC(=O)[C@@H](NC(=O)[C@H](CCSC)NC(C)=O)CSSC[C@@H](C(=O)NCC(=O)N[C@@H](CO)C(=O)NCC(=O)N[C@@H](CO)C(=O)N[C@@H](CC(=O)O)C(=O)N[C@@H](Cc2ccc(O)cc2)C(=O)N[C@@H](CCCCN)C(=O)N[C@@H](CC(=O)O)C(=O)N[C@@H](CC(=O)O)C(=O)N[C@@H](CC(=O)O)C(=O)N[C@@H](CC(=O)O)C(=O)N[C@@H](CCCCN)C(N)=O)NC(=O)[C@H](Cc2ccccc2)NC(=O)[C@H](CCCNC(=N)N)NC(=O)[C@H](CCCCN)NC(=O)[C@H](Cc2c[nH]cn2)NC(=O)[C@H](C)NC(=O)[C@H](CC(C)C)NC(=O)[C@H](Cc2ccccc2)NC(=O)[C@H](CCSC)NC(=O)[C@H](CCCCN)NC1=O [4.6] | > 1 | > 1 | 0.358 | 0.097 | > 1 | > 1 | > 1 | > 10 | > 10 |
| CSCC[C@H](NC(C)=O)C(=O)N[C@H]1CSSC[C@@H](C(=O)NCC(=O)N[C@@H](CO)C(=O)NCC(=O)N[C@@H](CO)C(=O)N[C@@H](CC(=O)O)C(=O)N[C@@H](Cc2ccc(O)cc2)C(=O)N[C@@H](CCCCN)C(=O)N[C@@H](CC(=O)O)C(=O)N[C@@H](CC(=O)O)C(=O)N[C@@H](CC(=O)O)C(=O)N[C@@H](CC(=O)O)C(=O)N[C@@H](CCCCN)C(N)=O)NC(=O)[C@H](C(C)C)NC(=O)[C@H](CC(C)C)NC(=O)[C@H](CC(C)C)NC(=O)[C@H](Cc2c[nH]c3ccccc23)NC(=O)[C@H](Cc2ccc(O)cc2)NC(=O)[C@H](Cc2ccccc2)NC(=O)[C@H](CC(C)C)NC(=O)[C@H](CCCNC(=N)N)NC(=O)[C@H](CCC(=O)O)NC(=O)[C@@H]2CCCN2C1=O [4.7] | > 1 | > 1 | 0.443 | 0.068 | > 1 | > 1 | > 1 | > 10 | > 10 |
| CC[C@H](C)[C@@H]1NC(=O)[C@H](Cc2c[nH]c3ccccc23)NC(=O)[C@@H]2CCCN2C(=O)[C@H](CCC(=O)O)NC(=O)[C@@H](NC(=O)[C@H](CCSC)NC(C)=O)CSSC[C@@H](C(=O)NCC(=O)N[C@@H](CO)C(=O)NCC(=O)N[C@@H](CO)C(=O)N[C@@H](CC(=O)O)C(=O)N[C@@H](Cc2ccc(O)cc2)C(=O)N[C@@H](CCCCN)C(=O)N[C@@H](CC(=O)O)C(=O)N[C@@H](CC(=O)O)C(=O)N[C@@H](CC(=O)O)C(=O)N[C@@H](CC(=O)O)C(=O)N[C@@H](CCCCN)C(N)=O)NC(=O)[C@H](CCCCN)NC(=O)[C@H](CCCCN)NC(=O)[C@H](CC(C)C)NC(=O)[C@H](C(C)C)NC(=O)[C@H](CCCCN)NC(=O)[C@H](Cc2ccc(O)cc2)NC(=O)[C@H]([C@@H](C)CC)NC(=O)[C@H]([C@@H](C)O)NC1=O [4.8] | > 1 | > 1 | 0.478 | 0.287 | > 1 | > 1 | 0.945 | > 10 | 1.25 |
